Source: ChEMBL document CHEMBL5120924 (J Nat Prod, 2022)

Tests used:
OVCAR-3 = assay: Cytotoxicity against human OVCAR-3 cells assessed as reduction in cell viability measured after 72 hrs by celltiter-blue cell viability assay; type: functional, cell-based; conditions: OVCAR-3, 72 h
MDA-MB-435 = assay: Cytotoxicity against human MDA-MB-435 cells assessed as reduction in cell viability measured after 72 hrs by celltiter-blue cell viability assay; type: functional, cell-based; conditions: MDA-MB-435, 72 h

| Compound | IC50 (OVCAR-3) [nM] | IC50 (MDA-MB-435) [nM] |
| --- | --- | --- |
| COC(=O)O[C@H]1C[C@H]2O[C@@H]2c2cc(OC)cc(O)c2C(=O)O[C@@H](C)C/C=C\C(=O)[C@H]1O | 1700 | 1700 |
| C=CCOC(=O)O[C@H]1C[C@H]2O[C@@H]2c2cc(OC)cc(O)c2C(=O)O[C@@H](C)C/C=C\C(=O)[C@H]1O | 1700 | 1700 |
| COc1cc(O)c2c(c1)[C@H]1O[C@@H]1C[C@H](O)[C@H](O)C(=O)/C=C\C[C@H](C)OC2=O [HYPOTHEMYCIN] | 2600 | 1900 |
| CCOC(=O)O[C@H]1C[C@H]2O[C@@H]2c2cc(OC)cc(O)c2C(=O)O[C@@H](C)C/C=C\C(=O)[C@H]1O | 1700 | 1700 |
| COc1cc(O)c2c(c1)[C@H]1O[C@@H]1C[C@H](O)[C@H](OC(C)=O)C(=O)/C=C\C[C@H](C)OC2=O | 1700 | 1700 |
| COc1cc(O)c2c(c1)[C@H]1O[C@@H]1C[C@H](OC(=O)/C=C\C(=O)O)[C@H](O)C(=O)/C=C\C[C@H](C)OC2=O | 1700 | 1700 |
| COC(=O)O[C@@H]1C(=O)/C=C\C[C@H](C)OC(=O)c2c(O)cc(OC)cc2[C@H]2O[C@@H]2C[C@@H]1O | 1700 | 1700 |
| COc1cc(O)c2c(c1)[C@H]1O[C@@H]1C[C@H](OC(C)=O)[C@H](O)C(=O)/C=C\C[C@H](C)OC2=O | 1700 | 1700 |
| C=CCOC(=O)O[C@@H]1C(=O)/C=C\C[C@H](C)OC(=O)c2c(O)cc(OC)cc2[C@H]2O[C@@H]2C[C@@H]1O | 1700 | 1700 |
| COc1cc(O)c2c(c1)[C@H]1O[C@@H]1C[C@H](OC(=O)CCC(=O)O)[C@H](O)C(=O)/C=C\C[C@H](C)OC2=O | 1700 | 1700 |
| COc1cc(O)c2c(c1)[C@H]1O[C@@H]1C[C@H](OC(=O)/C=C\C(=O)O)[C@H](OC(=O)/C=C\C(=O)O)C(=O)/C=C\C[C@H](C)OC2=O | 1700 | 1700 |
